Laboratory results from US11123398B2, “Chemotherapeutic combinations of cationic antimicrobial peptides and chemotherapeutics” (LYTIX BIOPHARMA AS, priority 2014, dated 2021).
Non-standard residues stand in square brackets, D forms with d. Residues, ends and D or L forms follow the SMILES beside them. No end group written: not given here. Bip = N[C@@H](Cc1ccc(-c2ccccc2)cc1)C(=O)O; dBip = N[C@H](Cc1ccc(-c2ccccc2)cc1)C(=O)O; Dip = N[C@H](C(=O)O)C(c1ccccc1)c1ccccc1

Tests used:
A20 lymphoma = experiment: LTX-315 with metronomic CY in A20 lymphoma model; format: in vivo, Balb/c mice; details: metronomic CY, single i.p. 2 mg on day 4
Protocol: Tumor cells were harvested, washed in RPMI-1640 and injected intradermally (i.d.) into the right side of the abdomen in Balb/c mice (5×10^6 A20 cells per mouse/50 μl RPMI-1640). When animals obtained palpable tumors (20-30 mm^2) animals were injected i.p. with a single dose of CY (day 4) dissolved in saline (2.0 mg CY/500 μl saline). […] Tumor size was measured using an electronic caliper and expressed as the area of an ellipse [(maximum dimension/2)×(minimum dimension/2)×π]. Animals were then euthanized when the product of the perpendicular tumor dimensions reached 130 mm^2 or when tumor ulceration developed.

spleen cells = details: cited from earlier work
Hep G2 cell line = format: cell-based, human; details: 4 h
Protocol: (§1) Tumor cells were plated in 96-well flat-bottom microtitration plates (Nunc, Dutscher, Brumath, France) and incubated at 37° C. for 24 hours before treatment in 190 μl of drug-free culture medium supplemented or not with 10% FBS for adherent or suspension growing cell lines, respectively.
(§2) The adherent cell lines were washed once with 200 μl FBS-free culture medium before treatment. Tumor cells were incubated for 4 hours with 10 concentrations of compounds in ¼ dilution step with a top dose of 400 μM (range 4×10^−4 to 4×10^−10 M), with 1% (final concentration) Triton X-100 as positive control and FBS-free culture medium as negative control. The cells (190 μl) were incubated in a 200 μl final volume of FBS-free culture medium containing test substances at 37° C. under 5% CO2.
(§3) Three independent experiments were performed, each concentration being tested in quadruplicate. Control cells were treated with vehicle alone. At the end of treatments, the cytotoxic activity was evaluated by a MTS assay (see § 3.3.).
(§4) Like MTT, MTS is bioreduced by cells into a formazan product that is directly soluble in culture medium without processing, unlike MTT.
(§5) At the end of the cells treatment, 40 μl of a 0.22 μm filtered freshly combined solution of MTS (20 ml at 2 mg/ml, Ref G1111, Batch 235897, Exp March 2009, Promega, Charbonnières, France) and PMS (1 ml at 0.92 mg/ml, Ref P9625, Batch 065K0961, Sigma) in Dulbecco's Phosphate Buffered Saline (DPBS, Ref 17-513Q, Batch 6MB0152, Cambrex), were added in each well. Culture plates were incubated for 2 h at 37° C. Absorbency (OD) were measured at 490 nm in each well using VICTOR^3™ 1420 multilabeled counter (Wallac, PerkinElmer, Courtaboeuf, France).
(§6) IC50: drug concentration to obtain a 50% inhibition of cell proliferation.
(§7) The dose-response curves were plotted using XLFit 3 (IDBS, United Kingdom). The IC50 determination values were calculated using the XLFit 3 software from semi-log curves. Individual IC50 determination values as well as mean and SD values were generated.

T-47D cell line = format: cell-based, human; details: 4 h
Protocol: as §1, §2, §3, §4, §5, §6, §7

[1] = test system: panel of 37 human cancer cell lines; format: cell-based; details: for IC50: 4 h; for IC50 range against 37 human cancer cell lines: conclusion
Protocol: as §2, with “Tumor cells were incubated for 4 hours with 10 concentrations of” left out
as §3, §4, §5, §6, §7

HL-60/ADR = experiment: MTS cytotoxicity assay, HL-60/ADR; format: cell-based, human; details: IC50 resistant / IC50 sensitive line; doxorubicin resistance
Protocol: as §1, §2, §3, §4, §5, §6, §7
(§8) Resistance index was calculated using the following formula: […]
(§9) Resistance index was calculated for each compound for each couple of sensitive and resistant cell lines. Individual resistance index was calculated when IC50 values of both sensitive and corresponding resistant cell lines were determined within same experiment. In addition, resistance index was also calculated ratio of mean IC50 values obtained during three independent experiments.

MCF-7/mdr = experiment: MTS cytotoxicity assay, MCF-7/mdr; format: cell-based, human; details: IC50 resistant / IC50 sensitive line; doxorubicin resistance
Protocol: as §1, §2, §3, §4, §5, §6, §7, §8, §9

IGROV-1/CDDP = experiment: MTS cytotoxicity assay, IGROV-1/CDDP; format: cell-based, human; details: IC50 resistant / IC50 sensitive line; cisplatin resistance
Protocol: as §1, §2, §3, §4, §5, §6, §7, §8, §9

Raji cell line = format: cell-based, human; details: 4 h
Protocol: (§10) Tumor cells were plated in 96-well flat-bottom microtitration plates (Nunc, Dutscher, Brumath, France) and incubated at 37° C. for 24 hours before treatment in 190 μl of drug-free and FBS-free culture medium.
as §2, with “Tumor” for “The adherent cell lines were washed once with 200 μl FBS-free culture medium before treatment. Tumor”, “[…]” for “4×10^−10”
(§11) Three independent experiments were performed, each concentration being issued from quadruplicate. Control cells were treated with vehicle alone. At the end of treatments, the cytotoxic activity was evaluated by a MTS assay (see § 3.3 below).
as §4, §5
(§12) 4.1. IC50 Data was Determined as in Example 1

U-937 cell line = format: cell-based, human; details: 4 h
Protocol: as §10
as §2, with “Tumor” for “The adherent cell lines were washed once with 200 μl FBS-free culture medium before treatment. Tumor”, “[…]” for “4×10^−10”
as §11, §4, §5, §12

[2] = test system: panel of 10 lymphoma cell lines; format: cell-based, human; details: conclusion
Protocol: as §10
[…] compounds in ¼ dilution step with a top dose of 400 μM (range 4×10^−4 to […]), with 1% (final concentration) Triton X-100 as positive control and FBS-free culture medium as negative control. The cells (190 μl) were incubated in a 200 μl final volume of FBS-free culture medium containing test substances at 37° C. under 5% CO2.
as §11, §4, §5, §12

RPMI 8226 cell line = format: cell-based, human; details: 4 h
Protocol: as §1, §2, §3, §4, §5, §6, §7

U-87 MG cell line = format: cell-based, human; details: 4 h
Protocol: as §1, §2, §3, §4, §5, §6, §7

CCRF-CEM/VLB = experiment: MTS cytotoxicity assay, CCRF-CEM/VLB; format: cell-based, human; details: IC50 resistant / IC50 sensitive line
Protocol: as §1
as §2, with “The cells (190 μl) were incubated in a 200 μl final volume of FBS-free culture medium containing test substances at 37° C. under 5% CO2.” left out
Three independent experiments were performed, each concentration being tested in quadruplicate. […] At the end of treatments, the cytotoxic activity was evaluated by a MTS assay (see § 3.3.). […]
as §5, with “Culture plates were incubated for 2 h at 37° C.” left out, “France). […]” for “France).”
as §8

Ramos cell line = format: cell-based, human; details: 4 h
Protocol: as §10
(§13) Tumor cells were incubated for 4 hours with 10 concentrations of compounds in ¼ dilution step with a top dose of 400 μM (range 4×10^−4 to […]), with 1% (final concentration) Triton X-100 as positive control and FBS-free culture medium as negative control. The cells (190 μl) were incubated in a 200 μl final volume of FBS-free culture medium containing test substances at 37° C. under 5% CO2.
as §11, §4, §5, §12

Hs 445 cell line = format: cell-based, human; details: 4 h
Protocol: as §10, §13, §11, §4, §5, §12

A375 cells = experiment: Confocal microscopy with fluorescence-labeled peptide (internalization); format: cell-based, human; details: 3 μM and 1.5 μM, 30-60 min
Protocol: Subconfluential A375 cells were seeded at 8,000 cells/well as above, and transfected on the second day using the Lipofectamine LTX with Plus transfection reagents (Invitrogen) following the manufacturer's protocol. The mitochondria were labeled using the pDsRed2-Mito, and the nucleus was labeled using the GFP-Histon2B plasmid (Imaging Platform, University of Tromsø). A day after transfection, cells were washed twice with serum-free RPMI, and treated at different concentration and incubation periods with LTX-315 Pacific Blue or LTX-328 Pacific Blue. […] Control cells were treated with unlabeled LTX-315 and also with serum-free RPMI only. After incubation, cells were fixed with 4% paraformaldehyde in PBS, and the wells were covered with Prolong Gold antifade (Invitrogen). Cells were further analyzed by use of a Leica TCS SP5 confocal microscope, with a […] objective. Pacific Blue, GFP and Ds Red were excited using UV, with 488 and 561 lasers, and fluorescence channels were sequentially detected using the following band passes: UV: 420-480 nm (with attenuation), 488: 501-550 nm and 561: 576-676 nm.

Compound	Duration of tumor growth inhibition (A20 lymphoma)	Relative number of CD19+ and Tregs (spleen cells; after CY administration)	Relative numbers of CD4+ and CD8+ T cells in spleens and LNs (spleen cells; after CY administration)	Drop in spleen cells at low-point (spleen cells; single i.p. injection of 2 mg CY, fourth day after administration)	IC50 (Hep G2 cell line)	IC50 (T-47D cell line)	IC50 [1]	IC50 range against 37 human cancer cell lines [1]	Resistance index (RI), HL-60/ADR (HL-60/ADR)	Resistance index (RI), MCF-7/mdr (MCF-7/mdr)	Resistance index (RI), IGROV-1/CDDP (IGROV-1/CDDP)	IC50 (Raji cell line)	IC50 (U-937 cell line)	IC50 range against 10 human lymphoma cell lines [2]	IC50 (RPMI 8226 cell line)	IC50 (U-87 MG cell line)	Resistance index (RI), CCRF-CEM/VLB (CCRF-CEM/VLB)	IC50 (Ramos cell line)	IC50 (Hs 445 cell line)	Internalization of Pacific Blue-labeled peptide (A375 cells)
O=P1(N(CCCl)CCCl)NCCCO1 (centres unmarked) [CY, cyclophosphamide]	7 to 10 days	decreased sharply	increased	50%	–	–	–	–	–	–	–	–	–	–	–	–	–	–	–	–
NCCCC[C@H](NC(=O)[C@H](Cc1c[nH]c2ccccc12)NC(=O)[C@H](CCCCN)NC(=O)[C@H](CCCCN)NC(=O)[C@@H](NC(=O)[C@H](Cc1c[nH]c2ccccc12)NC(=O)[C@H](CCCCN)NC(=O)[C@H](CCCCN)NC(=O)[C@@H](N)Cc1c[nH]c2ccccc12)C(c1ccccc1)c1ccccc1)C(N)=O [LTX-302, W-K-K-W-Dip-K-K-W-K-NH2] (H-WKKW[Dip]KKWK-NH2; N-terminus assumed)	–	–	–	–	20.1 ± 4.07 µM	4.83 ± 0.96 µM	12.1 ± 4.27 µM	micromolar to ten micromolar range	1.31	1.23	0.33	12.5 ± 3.52 µM	5.3 ± 2.02 µM	micromolar range	–	–	–	–	–	–
NCCCC[C@H](NC(=O)[C@H](Cc1c[nH]c2ccccc12)NC(=O)[C@H](Cc1c[nH]c2ccccc12)NC(=O)[C@H](CCCCN)NC(=O)[C@H](CCCCN)NC(=O)[C@H](Cc1c[nH]c2ccccc12)NC(=O)[C@H](Cc1ccc(-c2ccccc2)cc1)NC(=O)[C@H](CCCCN)NC(=O)[C@@H](N)CCCCN)C(N)=O [LTX-313, K-K-Bip-W-K-K-W-W-K-NH2] (H-KK[Bip]WKKWWK-NH2; N-terminus assumed)	–	–	–	–	–	–	9.6 ± 3.73 µM	micromolar to ten micromolar range	1.16	1.24	0.49	16.1 ± 4.86 µM	–	micromolar range	4.01 ± 0.39 µM	18.5 ± 4.86 µM	0.76	3.21 ± 2.81 µM	–	–
N=C(N)NCCC[C@H](NC(=O)[C@H](Cc1c[nH]c2ccccc12)NC(=O)[C@H](Cc1c[nH]c2ccccc12)NC(=O)[C@H](CCCNC(=N)N)NC(=O)[C@H](CCCNC(=N)N)NC(=O)[C@@H](NC(=O)[C@H](Cc1c[nH]c2ccccc12)NC(=O)[C@H](CCCNC(=N)N)NC(=O)[C@@H](N)CCCNC(=N)N)C(c1ccccc1)c1ccccc1)C(N)=O [LTX-320, R-R-W-Dip-R-R-W-W-R-NH2] (H-RRW[Dip]RRWWR-NH2; N-terminus assumed)	–	–	–	–	16.6 ± 3.15 µM	3.46 ± 0.22 µM	7.58 ± 2.79 µM	micromolar to ten micromolar range	0.90	1.19	0.49	11.3 ± 3.42 µM	–	micromolar range	–	–	–	–	2.22 µM	–
NCCCC[C@@H](N)C(=O)N[C@H](CCCCN)C(=O)N[C@H](Cc1ccc(-c2ccccc2)cc1)C(=O)N[C@H](Cc1c[nH]c2ccccc12)C(=O)N[C@H](CCCCN)C(=O)N[C@H](CCCCN)C(=O)N[C@H](Cc1c[nH]c2ccccc12)C(=O)N[C@H](Cc1c[nH]c2ccccc12)C(=O)N[C@H](CCCCN)C(N)=O [LTX-329, k-k-bip-w-k-k-w-w-k-NH2] (H-[dK][dK][dBip][dW][dK][dK][dW][dW][dK]-NH2; N-terminus assumed)	–	–	–	–	–	2.43 ± 0.34 µM	8.17 ± 3.2 µM	micromolar to ten micromolar range	0.80	1.07	0.46	8.7 ± 1.7 µM	–	micromolar range	–	16.9 ± 1.18 µM	0.76	–	2.46 µM	–
K-A-Q-Dip-Q-K-Q-A-W-NH2 (KAQ[Dip]QKQAW-NH2; N-terminus assumed; SMILES C[C@H](NC(=O)[C@H](CCC(N)=O)NC(=O)[C@H](CCCCN)NC(=O)[C@H](CCC(N)=O)NC(=O)[C@@H](NC(=O)[C@H](CCC(N)=O)NC(=O)[C@H](C)NC(=O)[C@@H](N)CCCCN)C(c1ccccc1)c1ccccc1)C(=O)N[C@@H](Cc1c[nH]c2ccccc12)C(N)=O) [LTX-328, reference compound]	–	–	–	–	–	–	–	–	–	–	–	–	–	–	–	–	–	–	–	did not demonstrate any internalization at any concentration or incubation time tested
